“And” between values parts separate entries of the source, which are not always exact repeats. Equal entries are not always repeated.
T1: ΔFOSB bound to genomic DNA in hippocampus of APP mice (Mus musculus, UniProt P13346)
T1 sequence (P13346 1-237 isoform P13346-2): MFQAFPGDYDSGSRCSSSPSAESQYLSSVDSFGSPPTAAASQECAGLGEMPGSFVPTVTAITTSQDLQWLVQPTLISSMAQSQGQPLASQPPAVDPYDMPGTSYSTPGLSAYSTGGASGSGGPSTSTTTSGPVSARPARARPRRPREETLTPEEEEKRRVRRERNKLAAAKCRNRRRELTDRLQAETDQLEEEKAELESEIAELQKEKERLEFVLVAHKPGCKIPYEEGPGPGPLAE

T2: ΔFOSB/JUND bZIP redox switch (ΔFOSB Cys172/JUND Cys285) (Mus musculus, UniProt P13346)
T2 sequence (P13346 153-219 isoform P13346-2): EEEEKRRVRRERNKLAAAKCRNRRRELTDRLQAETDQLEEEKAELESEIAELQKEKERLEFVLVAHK
T2 sequence (P15066 260-326 partner limits assumed): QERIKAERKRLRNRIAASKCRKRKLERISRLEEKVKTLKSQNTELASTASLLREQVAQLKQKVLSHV

T3: ΔFOSB homomer (full-length) (mouse, UniProt P13346-2 2-237)
T3 sequence: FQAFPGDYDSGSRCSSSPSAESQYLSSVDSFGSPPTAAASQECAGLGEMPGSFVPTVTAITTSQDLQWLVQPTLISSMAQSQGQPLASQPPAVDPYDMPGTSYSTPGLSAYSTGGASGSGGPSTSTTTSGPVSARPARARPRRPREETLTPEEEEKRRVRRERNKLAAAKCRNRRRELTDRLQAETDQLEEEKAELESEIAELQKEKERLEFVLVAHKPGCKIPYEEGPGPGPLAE

T4: ΔFOSB (full-length);JUND (full-length) (mouse;mouse, UniProt P13346-2;P15066 2-237;2-341, |)
T4 sequence 1: T3 sequence
T4 sequence 2: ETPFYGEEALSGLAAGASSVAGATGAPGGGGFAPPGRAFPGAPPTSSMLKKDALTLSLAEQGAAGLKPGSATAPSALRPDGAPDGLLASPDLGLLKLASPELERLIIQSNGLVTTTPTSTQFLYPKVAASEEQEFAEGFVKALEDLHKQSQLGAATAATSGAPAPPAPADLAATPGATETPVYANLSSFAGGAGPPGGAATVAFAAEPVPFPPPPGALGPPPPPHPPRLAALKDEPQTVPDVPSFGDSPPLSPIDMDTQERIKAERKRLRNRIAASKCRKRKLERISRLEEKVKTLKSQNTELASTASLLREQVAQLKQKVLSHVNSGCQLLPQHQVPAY

B1: TMR-cdk5 (cdk5 oligo) (dsDNA)
DNA 1: CGTCGGTGACTCAAAACAC
DNA 2: GTGTTTTGAGTCACCGACG

Columns and labels:
[1] = molecular target: T1, ΔFOSB bound to genomic DNA in hippocampus of APP mice; details: three days into the dorsal hippocampus of APP mice; cited from earlier work
[2] = molecular target: T2, ΔFOSB/JUND bZIP redox switch (ΔFOSB Cys172/JUND Cys285); experiment: Redox switch closure of ΔFOSB/JUND bZIP assessed by non-reducing SDS-PAGE; format: biochemical
[3] = molecular target: T3, ΔFOSB homomer (full-length); experiment: fluorescence polarization
[4] = molecular target: T4, ΔFOSB (full-length);JUND (full-length); experiment: fluorescence polarization

Row | Molecule | reduction in number of ΔFOSB-bound AP-1 sites (CUT&RUN) [1] | effect on closure of the redox switch under oxidation ([2]; 500 μM compound, 100 μM diamide, non-reducing SDS-PAGE) | promotion of oxidation / redox switch closure by compound alone ([2]; 0.5 mM compound, no diamide, SDS-PAGE) | binding result [3] | binding result [4]
1 | NC1=NN(c2ccc(Oc3ccccc3)c(S(=O)(=O)O)c2)C(=O)C1 [JPC0661] | 60% and ~ 60% | None of the three compounds (YL0441, JPC0661, and QB0365) prevented closure of the redox switch | did not oxidize the protein to induce closure of the redox switch |  | 
2 | B1 |  |  |  | binds | binds

Reference: article PMC13288968 (ACS chemical neuroscience, 2026)
